{
  "source": "patent US11738033B2",
  "about": "“Adjunctive therapy with 25-hydroxyvitamin D and articles therefor” (priority 2014, dated 2023)",
  "key": {"[1]": {"test": "Efficacy study in osteoporosis patients treated with an antiresorptive agent (denosumab)", "format": "in vivo, human", "conditions": "for incidence of hypocalcemia and severity of secondary hyperparathyroidism: once stable dosing has been achieved, denosumab-treated"}, "[2]": {"test": "Efficacy study in breast cancer patients treated with denosumab", "format": "in vivo, human", "conditions": "for incidence of hypocalcemia and severity of secondary hyperparathyroidism: once stable dosing has been achieved, denosumab-treated"}, "[3]": {"test": "Efficacy study in prostate cancer patients treated with denosumab", "format": "in vivo, human", "conditions": "for incidence of hypocalcemia and severity of SHPT and hypercalcemia: once stable dosing has been achieved, denosumab-treated"}, "[4]": {"test": "Efficacy study in patients with metastatic bone disease, prevention of SREs", "format": "in vivo, human", "conditions": "with denosumab or zoledronic acid", "description": "Denosumab or zoledronic acid are administered according to the typical standard of care for each patient's condition. Patients are monitored for SREs, including by appropriate non-invasive imaging techniques, and serum markers of tumor burden and bone metabolism at 3-month intervals, and at monthly intervals for serum and urine calcium levels and plasma PTH. Cancer progression is monitored at quarterly intervals."}, "[5]": {"test": "Efficacy study in patients with metastatic bone disease receiving an antiresorptive agent", "format": "in vivo, human", "conditions": "with denosumab or zoledronic acid", "description": "Denosumab or zoledronic acid are administered according to the typical standard of care for each patient's condition. […] Samples are collected at monthly intervals for monitoring serum and urine levels of calcium, plasma levels of PTH and serum total 25-hydroxyvitamin D. Serum markers of tumor burden and bone metabolism, as well as cancer progression are assessed at 3-month intervals."}, "[6]": {"format": "in vivo, human", "conditions": "dose escalation phase, 30 to 300 mcg daily", "description": "At the start of the study, all patients have plasma PTH greater than […] as evidence of SHPT, serum calcium less than 9.8 mg/dL, spot urine Ca:Cr ratio≤0.25 (≤250 mg/g creatinine) and an estimated glomerular filtration rate greater than 15 mL/min/1.73 m^2. […] Denosumab or zoledronic acid are administered according to the typical standard of care for each patient's condition.\nThe 52-week study consists of a 40 week dose escalation phase followed by a 12-week maintenance phase. At the end of the maintenance phase, there is a two-week follow up phase. At the start of the study, all patients receive an initial daily dose of 30 mcg 25-hydroxyvitamin D3, which is increased at four-week intervals over the course of the dose escalation phase up to a maximum daily dose of 300 mcg. The daily dose achieved by the end of the dose escalation study is the daily dose administered during the maintenance phase.\nBlood samples are collected at 2-week intervals for monitoring serum levels of calcium and phosphorus. […] Serum vitamin D metabolites and markers of bone metabolism, immune function, and tumor burden are measured at the beginning of the dose escalation phase and at the beginning and end of the maintenance phase. […] The genotype of vitamin D binding protein is determined for each subject at the beginning of the dose escalation phase."}, "[7]": {"conditions": "patients with bone metastases; cited from earlier work"}, "[8]": {"conditions": "24-month studies, compared to placebo"}, "[9]": {"conditions": "compared to antiresorptive plus placebo"}, "[10]": {"conditions": "after 24 months, with denosumab, vs denosumab and Vitamin D3"}, "[11]": {"conditions": "6-month study, compared to placebo"}},
  "note": "Where two headings read alike, the source gives them in different places.",
  "data": [
    {"compound": "C=C1CC[C@H](O)C/C1=C/C=C1\\CCC[C@]2(C)[C@@H]([C@H](C)CCCC(C)C)CC[C@@H]12", "note": "[Vitamin D3, cholecalciferol]", "values": [
      {"measurement": "incidence of hypocalcemia and severity of secondary hyperparathyroidism", "setting": "[1]", "result": "occur more frequently"},
      {"measurement": "incidence of hypocalcemia and severity of secondary hyperparathyroidism", "setting": "[2]", "result": "occur more frequently"},
      {"measurement": "incidence of hypocalcemia and severity of SHPT and hypercalcemia", "setting": "[3]", "result": "more frequently"}
    ]},
    {"compound": "C=C1CC[C@H](O)C/C1=C/C=C1\\CCC[C@]2(C)[C@@H]([C@H](C)CCCC(C)(C)O)CC[C@@H]12", "note": "[25-hydroxyvitamin D3]", "values": [
      {"measurement": "increase in serum calcium", "setting": "[4]; [8]", "result": "greater increase"},
      {"measurement": "plasma PTH", "setting": "[4]; [8]", "result": "decrease"},
      {"measurement": "risk of hypocalcemia", "setting": "[4]; [8]", "result": "reduced risk"},
      {"measurement": "time to additional bone metastasis or SRE", "setting": "[4]; [9]", "result": "increased delay"},
      {"measurement": "increases in bone mineral density", "setting": "[1]; [10]", "result": "larger increases"},
      {"measurement": "serum PTH levels", "setting": "[1]; [10]", "result": "lower"},
      {"measurement": "incidence of hypocalcemia and severity of secondary hyperparathyroidism", "setting": "[1]", "result": "markedly reduced"},
      {"measurement": "increase in serum calcium", "setting": "[5]; [11]", "result": "greater increase"},
      {"measurement": "plasma PTH", "setting": "[5]; [11]", "result": "decrease"},
      {"measurement": "risk of hypocalcemia", "setting": "[5]; [11]", "result": "reduced risk"},
      {"measurement": "time to additional bone metastasis", "setting": "[5]; [9]", "result": "increased delay"},
      {"measurement": "incidence of hypocalcemia", "setting": "[2]; [10]", "result": "significantly lower"},
      {"measurement": "increases in bone mineral density", "setting": "[2]; [10]", "result": "larger increases"},
      {"measurement": "serum PTH levels", "setting": "[2]; [10]", "result": "lower"},
      {"measurement": "time to additional bone metastasis", "setting": "[2]; [10]", "result": "significantly delayed"},
      {"measurement": "incidence of hypocalcemia and severity of secondary hyperparathyroidism", "setting": "[2]", "result": "markedly reduced"},
      {"measurement": "incidence of hypocalcemia", "setting": "[3]; [10]", "result": "significantly lower"},
      {"measurement": "increases in bone mineral density", "setting": "[3]; [10]", "result": "larger increases"},
      {"measurement": "serum PTH levels", "setting": "[3]; [10]", "result": "lower"},
      {"measurement": "serum levels of 25-hydroxyvitamin D3", "setting": "[3]; [10]", "result": "higher and more consistent"},
      {"measurement": "time to first post-treatment SRE", "setting": "[3]; [10]", "result": "significantly delayed"},
      {"measurement": "incidence of hypocalcemia and severity of SHPT and hypercalcemia", "setting": "[3]", "result": "markedly reduced"},
      {"measurement": "plasma PTH", "setting": "[6]", "result": "decreases"}
    ]},
    {"compound": "O=P(O)(O)C(O)(Cn1ccnc1)P(=O)(O)O", "note": "[zoledronic acid]", "values": [
      {"measurement": "patients who developed hypocalcemia", "setting": "[7]", "result": 39, "unit": "%"}
    ]}
  ]
}
